Measurements reported in patent publication US8916711B2, “Imidazothiazole-chalcone derivatives as potential anticancer agents and process for the preparation thereof” (Council of Scientific and Industrial Research, priority 2009, dated 2014).
Where two headings read alike, the source gives them in different places.

Tests used:
Assay type in all cases: cell-based
OVCAR-8 = assay: NCI in vitro cytotoxicity (SRB, 48 h), Ovarian panel; conditions: Homo sapiens
HOP-62 = assay: NCI in vitro cytotoxicity (SRB, 48 h), Non-small cell lung panel; conditions: Homo sapiens; HOP-62, Non-small cell lung; 48 h exposure
T-47D = assay: NCI in vitro cytotoxicity (SRB, 48 h), Breast panel; conditions: Homo sapiens, T47D, 48 h exposure
NCI-H322M = assay: NCI in vitro cytotoxicity (SRB, 48 h), Non-small cell lung panel; conditions: Homo sapiens, 48 h exposure
SF-539 = assay: NCI in vitro cytotoxicity (SRB, 48 h), CNS panel; conditions: Homo sapiens; SF-539, CNS; 48 h exposure
[1] = system: sixty human tumour cell lines; assay: NCI in vitro cytotoxicity, all panels
K-562 = assay: NCI in vitro cytotoxicity (SRB, 48 h), Leukemia panel; conditions: Homo sapiens, K562; K-562, Leukemia; 48 h exposure
Leukemia cell lines = assay: NCI in vitro cytotoxicity, whole panel; conditions: Homo sapiens
[2] = system: Ovarian cancer cell lines; assay: NCI in vitro cytotoxicity, whole panel; conditions: Homo sapiens
NCI-H23 = assay: NCI in vitro cytotoxicity (SRB, 48 h), Non-small cell lung panel; conditions: Homo sapiens, 48 h exposure
[3] = system: Non-small-cell lung cancer cell lines; assay: NCI in vitro cytotoxicity, whole panel; conditions: Homo sapiens
HOP-92 = assay: NCI in vitro cytotoxicity (SRB, 48 h), Non-small cell lung panel; conditions: Homo sapiens
SK-OV-3 = assay: NCI in vitro cytotoxicity (SRB, 48 h), Ovarian panel; conditions: Homo sapiens; SK-OV-3, Ovarian; 48 h exposure
CCRF-CEM = assay: NCI in vitro cytotoxicity (SRB, 48 h), Leukemia panel; conditions: Homo sapiens, 48 h exposure
HCC-2998 = assay: NCI in vitro cytotoxicity (SRB, 48 h), Colon panel; conditions: Homo sapiens
Melanoma cell lines = assay: NCI in vitro cytotoxicity, whole panel; conditions: Homo sapiens
Renal cancer cell lines = assay: NCI in vitro cytotoxicity, whole panel; conditions: Homo sapiens
BT-549 = assay: NCI in vitro cytotoxicity (SRB, 48 h), Breast panel; conditions: Homo sapiens; BT-549, Breast; 48 h exposure
MDA-MB-231/ATCC = assay: as above; conditions: Homo sapiens
Protocol: (§1) The imidazothiazole-chalcone hybrids 7a, 7e, 7f, 8f and 19e have been tested against sixty human tumour cell lines derived from nine cancer types (leukemia, non-small cell lung cancer, colon cancer, CNS cancer, melanoma, ovarian cancer, renal cancer, prostate cancer and breast cancer) as per NCI protocol. For each compound, dose response curves for individual cell lines have been measured at a minimum of five concentrations at 10 fold dilutions. A protocol of 48 h continuous drug exposure has been used, and a sulforhodamine B (SRB) protein assay was used to estimate cell viability or growth. The concentration for 50% cell growth inhibition (GI50), total cell growth inhibition (TGI, 0% growth) and 50% cell death (LC50, […]) compared with the control has been calculated (Table-1).

MCF7 = assay: as above; conditions: Homo sapiens
Protocol: as §1

SR = assay: NCI in vitro cytotoxicity (SRB, 48 h), Leukemia panel; conditions: Homo sapiens, 48 h exposure
Protocol: as §1

HL-60(TB) = assay: as above; conditions: Homo sapiens, 48 h exposure
Protocol: as §1

SNB-75 = assay: NCI in vitro cytotoxicity (SRB, 48 h), CNS panel; conditions: Homo sapiens; SNB-75, CNS; 48 h exposure
SNB-19 = assay: NCI in vitro cytotoxicity (SRB, 48 h), CNS panel; conditions: Homo sapiens; SNB-19, CNS; 48 h exposure
NCI-H460 = assay: NCI in vitro cytotoxicity (SRB, 48 h), Non-small cell lung panel; conditions: Homo sapiens, 48 h exposure
Breast cancer cell lines = assay: NCI in vitro cytotoxicity, whole panel; conditions: Homo sapiens
SK-MEL-2 = assay: NCI in vitro cytotoxicity (SRB, 48 h), Melanoma panel; conditions: Homo sapiens; SK-MEL-2, Melanoma; 48 h exposure
A498 = assay: NCI in vitro cytotoxicity (SRB, 48 h), Renal panel; conditions: Homo sapiens, 48 h exposure
MOLT-4 = assay: NCI in vitro cytotoxicity (SRB, 48 h), Leukemia panel; conditions: Homo sapiens; MOLT-4, Leukemia; 48 h exposure

COc1ccc(-c2nc3sccn3c2/C=C/C(=O)c2cc(OC)c(OC)c(OC)c2)cc1 [Compound 7a, (E)-3-(6-(4-methoxyphenyl)imidazo[2,1-b]thiazol-5-yl)-1-(3,4,5-trimethoxyphenyl) prop-2-en-1-one]
GI50 (OVCAR-8; OVCAR-8, Ovarian, 48 h exposure): 2010 nM
GI50 (OVCAR-8; OVCAR-8, ovarian): 2010 nM
GI50 (HOP-62): 2210 nM
GI50 (T-47D): 2260 nM
GI50 (NCI-H322M): 3700 nM
GI50 (SF-539): 1660 nM
GI50 ([1]; Homo sapiens, sixty cell lines, nine panels, read-out: GI50 against sixty cell lines in nine cell panels): < 9000 nM
Log10 TGI mean graph midpoint (MG_MID) ([1]; human tumour cell lines): −4.76
in vitro cytotoxicity, in words ([1]; human tumour cell lines): significant cytotoxicity
GI50 ([1]; human tumour cell lines, read-out: Log10 GI50 mean graph midpoint (MG_MID) (converted)): 2340 nM
CC50 ([1]; human tumour cell lines, read-out: Log10 LC50 mean graph midpoint (MG_MID) (converted)): 87100 nM
GI50 (K-562): 1720 nM
GI50 (Leukemia cell lines; Leukemia, average of six to eight cell lines, read-out: Log10 GI50 (converted)): 2240 nM
CC50 (Leukemia cell lines; Leukemia, average of six to eight cell lines, read-out: Log10 LC50 (converted)): ≥ 100000 nM
GI50 (Leukemia cell lines; exposure period of at least 48 hrs, read-out: GI50, range over leukemia cell lines): 1660 to 3080 nM
GI50 ([2]; Ovarian, average of six to eight cell lines, read-out: Log10 GI50 (converted)): 1860 nM
CC50 ([2]; Ovarian, average of six to eight cell lines, read-out: Log10 LC50 (converted)): 70800 nM
GI50 ([2]; exposure period of at least 48 hrs, read-out: GI50, range over ovarian cell lines): 210 to 4050 nM
GI50 (NCI-H23): 2180 nM
GI50 ([3]; Non-small-cell lung, average of six to eight cell lines, read-out: Log10 GI50 (converted)): 1950 nM
CC50 ([3]; Non-small-cell lung, average of six to eight cell lines, read-out: Log10 LC50 (converted)): 95500 nM
GI50 ([3]; exposure period of at least 48 hrs, read-out: GI50, range over lung cell lines): 240 to 3700 nM
GI50 (HOP-92; HOP-92, Non-small cell lung, 48 h exposure): 240 nM
GI50 (HOP-92; HOP-92, non-small cell lung): 240 nM
IC50 (HOP-92; HOP-92, Table 4, read-out: Comparative efficacy): 240 nM
GI50 (SK-OV-3): 3280 nM
GI50 (CCRF-CEM): 3080 nM
GI50 (HCC-2998; HCC-2998, Colon, 48 h exposure): 1770 nM
GI50 (HCC-2998; HCC-2998, colon): 1770 nM
GI50 (Melanoma cell lines; Melanoma, average of six to eight cell lines, read-out: Log10 GI50 (converted)): 2630 nM
CC50 (Melanoma cell lines; Melanoma, average of six to eight cell lines, read-out: Log10 LC50 (converted)): 70800 nM
GI50 (Melanoma cell lines; exposure period of at least 48 hrs, read-out: GI50, range over melanoma cell lines): 1300 to 5420 nM
GI50 (Renal cancer cell lines; Renal, average of six to eight cell lines, read-out: Log10 GI50 (converted)): 2510 nM
CC50 (Renal cancer cell lines; Renal, average of six to eight cell lines, read-out: Log10 LC50 (converted)): ≥ 100000 nM
GI50 (Renal cancer cell lines; exposure period of at least 48 hrs, read-out: GI50, range over renal cell lines): 1120 to 5040 nM
GI50 (BT-549): 3460 nM
GI50 (MDA-MB-231/ATCC; Breast, 48 h exposure): 2550 nM
IC50 (MDA-MB-231/ATCC; Table 4, read-out: Comparative efficacy): 2550 nM
IC50 (MCF7; MCF7, MCF-7, Table 4, read-out: Comparative efficacy): 2020 nM
GI50 (MCF7; MCF7, Breast, 48 h exposure): 2020 nM
GI50 (SR): 2330 nM
GI50 (HL-60(TB)): 1660 nM
GI50 (SNB-75): 2290 nM
GI50 (SNB-19): 3540 nM
GI50 (NCI-H460): 2700 nM
GI50 (Breast cancer cell lines; Breast, average of six to eight cell lines, read-out: Log10 GI50 (converted)): 2510 nM
CC50 (Breast cancer cell lines; Breast, average of six to eight cell lines, read-out: Log10 LC50 (converted)): ≥ 100000 nM
IC50 (Breast cancer cell lines; exposure period of at least 48 hrs, read-out: IC50, range over breast cell lines): 1900 to 3460 nM
GI50 (SK-MEL-2): 2420 nM
GI50 (A498): 2990 nM
GI50 (MOLT-4): 2520 nM
